Among the test systems are K-562 leukemia; UACC-62 melanoma; CAKI-1 renal; CCRF-CEM leukemia; SF-295 CNS; HCT-116 colon; TK-10 renal; HOP-92 NSCLC; OVCAR-4 ovarian; A498 renal.
What all share (test): DTP human tumour cell line panel, 48 h

The values that follow come from PubChem BioAssay (NCI).

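Tested at 5 concentrations; 48 h exposure; 96-well plates; endpoints linearly interpolated, else capped at highest concentration. Here, GI50 denotes the concentration required for 50% inhibition of growth. The concentration for full growth arrest is given as TGI.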

As for `CS(=O)(=O)Nc1cccc(-c2cc(-c3ccccc3Cl)c(C#N)c(N)n2)c1`, the GI50 in the experiment on K-562 leukemia is 0.344 µM; in the experiment with UACC-62 melanoma it was 0.51 µM; in the experiment with CAKI-1 renal it was 0.502 µM; with CCRF-CEM leukemia, 0.562 µM; in the experiment with SF-295 CNS, 0.411 µM; in the experiment on HCT-116 colon, 0.448 µM. The GI50 in the experiment on TK-10 renal was 1.15 µM; with HOP-92 NSCLC it was 1.11 µM; in the experiment on OVCAR-4 ovarian, 1.92 µM; in the experiment with A498 renal, 0.669 µM. Further, the TGI in the experiment with K-562 leukemia was over 100 µM; with UACC-62 melanoma, 15.5 µM; with CAKI-1 renal, 24.4 µM; with CCRF-CEM leukemia, over 82.4 µM; in the experiment on SF-295 CNS, 12.9 µM; in the experiment on HCT-116 colon it was 11.8 µM. For the same molecule, the TGI came out at 18.5 µM with TK-10 renal, 16 µM with HOP-92 NSCLC, 35.6 µM with OVCAR-4 ovarian and 14.4 µM in the experiment with A498 renal.

For `Cc1nc(CN2CCCCC2)c(O)c(=O)[nH]1`, the TGI with K-562 leukemia, in the experiment on UACC-62 melanoma, with CAKI-1 renal, with CCRF-CEM leukemia, in the experiment with SF-295 CNS and with HCT-116 colon was over 100 µM each time. The TGI in the experiment on TK-10 renal, with HOP-92 NSCLC, with OVCAR-4 ovarian and in the experiment on A498 renal was over 100 µM in each case.

In the case of `N#CC(C#N)N=Nc1ccc(Br)cc1`, the GI50 was 3.02 µM in the experiment on K-562 leukemia; 1.91 µM in the experiment with UACC-62 melanoma; 2.05 µM in the experiment with CAKI-1 renal; 1.53 µM in the experiment with CCRF-CEM leukemia; 30.3 µM in the experiment on SF-295 CNS; 2.44 µM with HCT-116 colon. In addition, the GI50 is 4.04 µM in the experiment on TK-10 renal, 0.249 µM with HOP-92 NSCLC, 2 µM with OVCAR-4 ovarian and 13.3 µM in the experiment on A498 renal. Besides, the TGI with K-562 leukemia is over 100 µM; in the experiment with UACC-62 melanoma it was 10.9 µM; in the experiment with CAKI-1 renal, 12.1 µM; with CCRF-CEM leukemia it was 10.7 µM; in the experiment on SF-295 CNS, over 100 µM; with HCT-116 colon, 9.44 µM. Besides, the TGI in the experiment with TK-10 renal was found to be 43.2 µM; in the experiment on HOP-92 NSCLC it was 1.84 µM; in the experiment on OVCAR-4 ovarian, 37.9 µM; in the experiment with A498 renal, 46.1 µM.

For `O=C(O)c1ccc(S(=O)(=O)Nc2ccc3oc4c(c3c2)C(=O)CCC4)cc1`, the GI50 in the experiment on K-562 leukemia, in the experiment with UACC-62 melanoma, in the experiment on CAKI-1 renal, in the experiment with CCRF-CEM leukemia, in the experiment on SF-295 CNS and in the experiment on HCT-116 colon was over 100 µM throughout. The GI50 in the experiment with TK-10 renal, with HOP-92 NSCLC, in the experiment with OVCAR-4 ovarian and in the experiment with A498 renal was over 100 µM in each case. Further, the TGI in the experiment on K-562 leukemia, in the experiment with UACC-62 melanoma, in the experiment on CAKI-1 renal, with CCRF-CEM leukemia, with SF-295 CNS and with HCT-116 colon was over 100 µM in each case. The TGI in the experiment with TK-10 renal, in the experiment with HOP-92 NSCLC, in the experiment with OVCAR-4 ovarian and in the experiment with A498 renal was over 100 µM throughout.

Regarding `CN(CC#N)C1CCCC[C@H]1O` (stereo not given in full), the TGI in the experiment with K-562 leukemia, in the experiment on UACC-62 melanoma, with CAKI-1 renal, with CCRF-CEM leukemia, with SF-295 CNS and in the experiment with HCT-116 colon was over 100 µM throughout. Besides, the TGI with TK-10 renal, with HOP-92 NSCLC, in the experiment with OVCAR-4 ovarian and in the experiment with A498 renal was over 100 µM throughout.

For `CS(=O)(=O)CCNCc1ccc(-c2ccc3ncnc(Nc4ccc(OCc5cccc(F)c5)c(C(F)(F)F)c4)c3c2)o1`, the GI50 in the experiment on K-562 leukemia is 5.07 µM; in the experiment on UACC-62 melanoma, 3.94 µM; with CAKI-1 renal, 4.59 µM; in the experiment with CCRF-CEM leukemia, 4.8 µM; in the experiment with SF-295 CNS, 4.4 µM; in the experiment on HCT-116 colon, 3.94 µM. Further, the GI50 in the experiment on TK-10 renal was 4.65 µM; in the experiment with HOP-92 NSCLC, 0.847 µM; in the experiment with OVCAR-4 ovarian, 3.65 µM; with A498 renal, 3.54 µM. Also, the total growth inhibition concentration (TGI) with K-562 leukemia was found to be 20 µM; with UACC-62 melanoma, 7.48 µM; in the experiment on CAKI-1 renal, 13.7 µM; in the experiment with CCRF-CEM leukemia, 13.9 µM; in the experiment on SF-295 CNS, 9.43 µM; in the experiment with HCT-116 colon, 8.16 µM. Also, the TGI in the experiment with TK-10 renal was 9.82 µM; with HOP-92 NSCLC it was 6.34 µM; in the experiment on OVCAR-4 ovarian, 10.8 µM; with A498 renal, 9.04 µM.

In the case of `O=C(/C=N/O)Nc1cc(Cl)c(Cl)cc1Cl`, the TGI was over 100 µM in the experiment on K-562 leukemia; 76.3 µM with UACC-62 melanoma; 79.8 µM with CAKI-1 renal; 91.9 µM with CCRF-CEM leukemia; 87.6 µM in the experiment on SF-295 CNS; 90.1 µM in the experiment on HCT-116 colon. For the same molecule, the TGI was over 100 µM in the experiment with TK-10 renal, over 100 µM in the experiment on HOP-92 NSCLC, over 100 µM in the experiment on OVCAR-4 ovarian and 55.5 µM in the experiment with A498 renal.

With `O=C(Cc1csc(-c2nc(CC(=O)NNc3ccccc3)cs2)n1)NNc1ccccc1`, the TGI in the experiment with K-562 leukemia, in the experiment on UACC-62 melanoma, with CAKI-1 renal, in the experiment on CCRF-CEM leukemia, in the experiment on SF-295 CNS and in the experiment on HCT-116 colon was over 100 µM throughout. In addition, the TGI with TK-10 renal, with HOP-92 NSCLC, in the experiment on OVCAR-4 ovarian and in the experiment on A498 renal was over 100 µM in each case.

Consider `CC(=O)[O-].[Mn+3].[O-]c1ccccc1C=NCCN=Cc1ccccc1[O-]`, for which the GI50 with K-562 leukemia is 30.3 µM; in the experiment with UACC-62 melanoma, over 100 µM; with CAKI-1 renal, over 100 µM; in the experiment with CCRF-CEM leukemia, 25.1 µM; in the experiment with SF-295 CNS it was over 100 µM; in the experiment on HCT-116 colon, 95.5 µM. For the same molecule, the GI50 in the experiment on TK-10 renal, with HOP-92 NSCLC, in the experiment on OVCAR-4 ovarian and with A498 renal was over 100 µM each time. Further, the TGI with K-562 leukemia, with UACC-62 melanoma, with CAKI-1 renal, in the experiment on CCRF-CEM leukemia, in the experiment with SF-295 CNS and with HCT-116 colon was over 100 µM each time. In addition, the TGI in the experiment with TK-10 renal, in the experiment on HOP-92 NSCLC, in the experiment with OVCAR-4 ovarian and in the experiment on A498 renal was over 100 µM in each case.
